Like-named read-outs stand apart in the source and are kept apart here.
How the values were obtained:
[1] = biological target: T1, CYP17A1_WT (Homo sapiens, UniProt P05093); assay: Spectral substrate/inhibitor-binding assay, WT CYP17A1; settings: 50 nM protein, 22 °C
T1 sequence (P05093 1-508): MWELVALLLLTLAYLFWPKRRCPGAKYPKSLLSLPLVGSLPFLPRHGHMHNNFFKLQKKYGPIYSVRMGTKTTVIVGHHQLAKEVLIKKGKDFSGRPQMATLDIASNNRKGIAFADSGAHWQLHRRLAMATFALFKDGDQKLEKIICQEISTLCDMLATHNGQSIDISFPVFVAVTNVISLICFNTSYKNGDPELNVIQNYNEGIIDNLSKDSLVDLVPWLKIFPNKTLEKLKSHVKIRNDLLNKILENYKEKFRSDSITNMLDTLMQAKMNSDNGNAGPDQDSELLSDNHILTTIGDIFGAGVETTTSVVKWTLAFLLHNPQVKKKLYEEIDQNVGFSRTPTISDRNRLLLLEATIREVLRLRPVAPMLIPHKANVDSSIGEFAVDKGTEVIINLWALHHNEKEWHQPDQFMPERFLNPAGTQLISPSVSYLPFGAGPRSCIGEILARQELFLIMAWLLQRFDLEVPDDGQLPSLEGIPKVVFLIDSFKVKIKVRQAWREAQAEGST
Procedure: Binding of steroid substrates to CYP17A1 was measured by recording the substrate-binding spectra in the range of 340–500 nm on a Perkin Elmer Lambda 25 spectrophotometer. A change in heme absorbance is observed when water molecules at the active site are replaced by steroid substrates. […] To accurately measure the tight binding substrates and inhibitors, a cuvette with 100 mm path length was employed and protein concentration was kept at 50 nM. […] All substrates and abiraterone were dissolved in ethanol and an equal amount of ethanol was added to the reference cuvette and the final concentration of ethanol added to the cuvettes was kept below 2%. After each addition of the compounds, cuvettes were incubated for 5 min at 22 °C before recording the spectra. […] Data were fitted with GraphPad Prism based on the tight binding pattern of substrates to a single binding site.

[2] = biological target: T1, CYP17A1_WT; assay: Inhibition of PROG 17α-hydroxylation, WT CYP17A1; format: biochemical
Procedure: (§1) To assess 17α-hydroxylase activity, 10 pmol of CYP17A1 along with 20 pmol purified human POR [17, 31, 32, 34, 62] […] Enzyme kinetic calculations were performed using non-linear regression curve fitting with Prism (GraphPad Software Inc., San Diego, CA, USA). Data represent the mean of three independent experiments.

[3] = system: T2, CYP17A1 WT; assay: 17α-hydroxylase enzyme kinetics (PROG to 17OH-PROG), WT CYP17A1; format: biochemical, human
T2 construct: (His)4; made in house; host or cells: E. coli JM109
Procedure: as §1

[4] = system: CYP17A1 WT; settings: 17OH-PREG as substrate, with cytochrome b5

| Kd ([1]; read-out: Kd) | IC50 [2] | SMILES | Vmax, 17α-Hydroxylase PROG to 17OH-PROG ([3]; PROG as substrate) | Km ([3]; read-out: Km, 17α-Hydroxylase PROG to 17OH-PROG, PROG as substrate, CYP17A1:POR 1:2, 37 °C) | Cat Eff, 17α-Hydroxylase PROG to 17OH-PROG ([3]; relative to WT) | Kd ([1]; Kd) | Vmax, 17,20 Lyase 17OH-PREG to DHEA [4] | Km ([4]; read-out: Km, 17,20 Lyase 17OH-PREG to DHEA) |
| --- | --- | --- | --- | --- | --- | --- | --- | --- |
| 62 ± 17 nM | 900 ± 150 nM | CC(=O)[C@H]1CC[C@H]2[C@@H]3CC=C4C[C@@H](O)CC[C@]4(C)[C@H]3CC[C@]12C [PREG, pregnenolone] |  |  |  |  |  |  |
| 85 ± 23 nM | 40 ± 10 nM | C[C@]12CC[C@H](O)CC1=CC[C@@H]1[C@@H]2CC[C@]2(C)C(c3cccnc3)=CC[C@@H]12 [Abiraterone, abiraterone] |  |  |  |  |  |  |

| SMILES | Kd ([1]; read-out: Kd) | IC50 [2] | Vmax, 17α-Hydroxylase PROG to 17OH-PROG ([3]; PROG as substrate) | Km ([3]; read-out: Km, 17α-Hydroxylase PROG to 17OH-PROG, PROG as substrate, CYP17A1:POR 1:2, 37 °C) | Cat Eff, 17α-Hydroxylase PROG to 17OH-PROG ([3]; relative to WT) | Kd ([1]; Kd) | Vmax, 17,20 Lyase 17OH-PREG to DHEA [4] | Km ([4]; read-out: Km, 17,20 Lyase 17OH-PREG to DHEA) |
| --- | --- | --- | --- | --- | --- | --- | --- | --- |
| CC(=O)[C@H]1CC[C@H]2[C@@H]3CCC4=CC(=O)CC[C@]4(C)[C@H]3CC[C@]12C [PROG, Progesterone] | 163 ± 29 nM |  | 0.71 min⁻¹ | 6.1 ± 0.7 µM | 100% |  |  |  |
| CC(=O)[C@@]1(O)CC[C@H]2[C@@H]3CC=C4C[C@@H](O)CC[C@]4(C)[C@H]3CC[C@@]21C [17OH-PREG, 17α-hydroxypregnenolone] |  | 1700 ± 200 nM |  |  |  | 142 ± 38 nM | 0.025 ± 0.004 min⁻¹ | 0.92 ± 0.07 µM |
